“And” between values parts separate entries of the source, which are not always exact repeats. Identical values can stand only once. Toxic doses and inconclusive results are not listed. How the source made its calls: active means survival T/C of 150% or more; inactive means T/C below 125% in these data.
System: P388 leukemia ip, CD2F1 mice, survival T/C
Experiment: NCI In Vivo Anticancer Drug Screen. Data for tumor model P388 Leukemia (intraperitoneal) in CD2F1 (CDF1) mice
Settings: endpoint: median survival time, higher = longer survival
Outline: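 Mice carrying the transplanted tumor received test compound or vehicle. Survival was recorded in each group, and the value is the treated-group measurement divided by that of the vehicle-treated control group.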

[1] = dose: 50.0 mg/kg/injection, schedule: Q01DX009 (ip), vehicle: saline
[2] = dose: 100.0 mg/kg/injection, schedule: Q01DX009 (ip), vehicle: saline
[3] = dose: 200.0 mg/kg/injection, schedule: Q01DX009 (ip), vehicle: saline
[4] = dose: 60.0 mg/kg/injection, schedule: Q01DX005 (ip), vehicle: Klucel (hydroxypropylcellulose) (HPC)
[5] = dose: 120.0 mg/kg/injection, schedule: Q01DX005 (ip), vehicle: Klucel (hydroxypropylcellulose) (HPC)
[6] = dose: 240.0 mg/kg/injection, schedule: Q01DX005 (ip), vehicle: Klucel (hydroxypropylcellulose) (HPC)
[7] = dose: 50.0 mg/kg/injection, schedule: Q01DX009 (ip), vehicle: saline with Tween-80
[8] = dose: 100.0 mg/kg/injection, schedule: Q01DX009 (ip), vehicle: saline with Tween-80
[9] = dose: 100.0 mg/kg/injection, schedule: Q04DX002 (ip), vehicle: saline with Tween-80
[10] = dose: 200.0 mg/kg/injection, schedule: Q04DX002 (ip), vehicle: saline with Tween-80
[11] = dose: 400.0 mg/kg/injection, schedule: Q04DX002 (ip), vehicle: saline with Tween-80
[12] = dose: 50.0 mg/kg/injection, schedule: Q04DX002 (ip), vehicle: saline with Tween-80

Measured: T/C

CC1(C)NC1C(O)c1ccccc1 (configuration not stated)
inactive: [1] 102 % of control | [2] 103 % of control | [3] 104 % of control

O=C(O)c1sc(-c2ccccc2)c2c1-c1ccccc1C2=O
inactive: [4] 98 % of control | [5] 96 % of control | [6] 97 % of control

CN1CCc2c1cc(-c1ccco1)c1c2N(C)CC1
inactive: dose: 50.0 mg/kg/injection, schedule: Q01DX005 (ip), vehicle: Klucel (hydroxypropylcellulose) (HPC) 104 % of control | dose: 100.0 mg/kg/injection, schedule: Q01DX005 (ip), vehicle: Klucel (hydroxypropylcellulose) (HPC) 111 % of control | dose: 200.0 mg/kg/injection, schedule: Q01DX005 (ip), vehicle: Klucel (hydroxypropylcellulose) (HPC) 107 % of control

CCO/C=N/NS(=O)(=O)c1ccc(C)cc1
inactive: dose: 6.25 mg/kg/injection, schedule: Q01DX009 (ip), vehicle: distilled water + Tween-80 108 % of control | dose: 12.5 mg/kg/injection, schedule: Q01DX009 (ip), vehicle: distilled water + Tween-80 108 % of control | dose: 12.5 mg/kg/injection, schedule: Q01DX009 (ip), vehicle: other 104 % of control | dose: 12.5 mg/kg/injection, schedule: Q01DX009 (ip), vehicle: saline with Tween-80 105 % of control | dose: 25.0 mg/kg/injection, schedule: Q01DX009 (ip), vehicle: saline with Tween-80 98 % of control | dose: 50.0 mg/kg/injection, schedule: Q01DX009 (ip), vehicle: other 104 % of control | [7] 96 % of control | dose: 100.0 mg/kg/injection, schedule: Q01DX009 (ip), vehicle: other 98 % of control | [8] 92 % of control | dose: 200.0 mg/kg/injection, schedule: Q01DX009 (ip), vehicle: other 106 % of control

O=c1[nH]oc(=O)[nH]1
inactive: dose: 6.25 mg/kg/injection, schedule: Q01DX005 (ip), vehicle: saline 95 % of control | dose: 12.5 mg/kg/injection, schedule: Q01DX005 (ip), vehicle: saline 97 % of control | dose: 25.0 mg/kg/injection, schedule: Q01DX005 (ip), vehicle: saline 94 % of control | dose: 50.0 mg/kg/injection, schedule: Q01DX005 (ip), vehicle: saline 100 % of control and 91 % of control | dose: 200.0 mg/kg/injection, schedule: Q01DX005 (ip), vehicle: saline 100 % of control

O=C1C=CCCCC1(c1ccccc1)c1ccccc1
inactive: [9] 96 % of control | [10] 96 % of control | [11] 96 % of control

COc1cc2c(cc1OC)C13CCC(O)CC1=CC2(C)O3 (configuration not stated)
inactive: [12] 96 % of control | [9] 96 % of control | [10] 89 % of control

OCC(O)/C=C/c1ccccc1 (configuration not stated)
inactive: dose: 100.0 mg/kg/injection, schedule: Q01DX001 (ip), vehicle: Klucel (hydroxypropylcellulose) (HPC) 95 % of control | [9] 96 % of control | dose: 200.0 mg/kg/injection, schedule: Q01DX001 (ip), vehicle: Klucel (hydroxypropylcellulose) (HPC) 103 % of control | [10] 90 % of control | dose: 400.0 mg/kg/injection, schedule: Q01DX001 (ip), vehicle: Klucel (hydroxypropylcellulose) (HPC) 108 % of control | [11] 99 % of control

COC1(OC)OC(c2ccccc2)=C(C#N)C(c2ccc(Cl)cc2)C1(OC)OC (configuration not stated)
inactive: [4] 96 % of control | [5] 94 % of control | [6] 88 % of control

CN1CCC(=C2c3ccccc3C(=O)C(=O)c3sccc32)CC1
inactive: [7] 95 % of control | [8] 95 % of control | dose: 200.0 mg/kg/injection, schedule: Q01DX009 (ip), vehicle: saline with Tween-80 111 % of control

Cc1nc2sc3c(c2c(=N)n1N)CCCC3
inactive: dose: 12.5 mg/kg/injection, schedule: Q01DX001 (ip), vehicle: Klucel (hydroxypropylcellulose) (HPC) 103 % of control | dose: 25.0 mg/kg/injection, schedule: Q01DX001 (ip), vehicle: Klucel (hydroxypropylcellulose) (HPC) 97 % of control

CCOC(=O)c1c(C)[nH]c(=O)c(C#N)c1NC1CCCCC1
inactive: dose: 25.0 mg/kg/injection, schedule: Q04DX002 (ip), vehicle: saline with Tween-80 98 % of control | [12] 100 % of control | [9] 92 % of control

N#C/C(=N\NC(=O)c1cccs1)c1ccccc1Cl
inactive: dose: 50.0 mg/kg/injection, schedule: Q01DX005 (ip), vehicle: saline with Tween-80 93 % of control | dose: 100.0 mg/kg/injection, schedule: Q01DX005 (ip), vehicle: saline with Tween-80 103 % of control | dose: 200.0 mg/kg/injection, schedule: Q01DX005 (ip), vehicle: saline with Tween-80 106 % of control

CN(C(=O)C(Cl)Cl)c1ccc(-c2csc(Cc3ccccc3)n2)cc1
inactive: dose: 100.0 mg/kg/injection, schedule: Q04DX003 (ip), vehicle: Klucel (hydroxypropylcellulose) (HPC) 101 % of control | dose: 200.0 mg/kg/injection, schedule: Q04DX003 (ip), vehicle: Klucel (hydroxypropylcellulose) (HPC) 99 % of control | dose: 400.0 mg/kg/injection, schedule: Q04DX003 (ip), vehicle: Klucel (hydroxypropylcellulose) (HPC) 97 % of control

O=C(CNC(=O)NCc1ccco1)N/N=C/c1ccccc1O
inactive: [7] 89 % of control | [8] 96 % of control

O=C1CCC2=C3C4CCCC5OC6CC(=O)CCC6=C(C6CCCC(OC2C1)C36)C54 (configuration not stated)
inactive: [1] 96 % of control | [2] 100 % of control | [3] 96 % of control | dose: 400.0 mg/kg/injection, schedule: Q01DX009 (ip), vehicle: saline 100 % of control

N#CSc1ccc2nc(NC(NC(=O)c3ccccc3)C(Cl)(Cl)Cl)sc2c1 (configuration not stated)
inactive: dose: 6.25 mg/kg/injection, schedule: Q01DX009 (ip), vehicle: Klucel (hydroxypropylcellulose) (HPC) 102 % of control | dose: 12.5 mg/kg/injection, schedule: Q01DX009 (ip), vehicle: Klucel (hydroxypropylcellulose) (HPC) 108 % of control | dose: 25.0 mg/kg/injection, schedule: Q01DX009 (ip), vehicle: Klucel (hydroxypropylcellulose) (HPC) 101 % of control

— PubChem BioAssay AID330 (DTP/NCI, 2004)
